Read-outs that look alike come from different tables or passages of the source.
Experiments:
H1975 cells = assay: H1975 Cell Proliferation Assay (MTT); assay type: cell-based; details: Homo sapiens
A549 cells = assay: A549 Cell Proliferation Assay (MTT); assay type: cell-based; details: Homo sapiens
HT-29 cells = assay: HT-29 Cell Proliferation Assay (MTT); assay type: cell-based; details: Homo sapiens, HT-29, 72 h, read-out: IC50 Value (μM) HT-29 Cells
[1] = system: DNA fragmentation in A549 cells; assay: DNA Fragmentation Assay (Cell Death Detection ELISA); assay type: cell-based; details: for Emax at 1 µM / Emax at 10 µM: A549, read-out: % Increase Relative to Staurosporin
[2] = Pharmacokinetics, intravenous and oral dose; parameters: species or system male CD-1 mice; details: in vivo; for Cmax: plasma; for half-life: read-out: Half-life (t1/2; h) (converted)
Experimental: Plasma levels of the test compounds were determined by LC-MS/MS. Data was analyzed by non compartmental pharmacokinetic model by using WinNonlin.

[3] = Stability on incubation with mouse liver microsomes (MLM); assay type: in vitro ADME; details: percentage left after incubation with mouse liver microsomes for 30 minutes
How it was run: (§1)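 Values are percent compound remaining after 30 min incubation with mouse or human liver microsomes.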

[4] = Stability on incubation with human liver microsomes (HLM); assay type: in vitro ADME; details: percentage left after incubation with human liver microsomes for 30 minutes
How it was run: as §1

[5] = A549, 72 h, read-out: IC50 Value (μM) A549 Cells
[6] = NCI-H1975, 72 h, read-out: IC50 Value (μM) H1975 Cells
[7] = Homo sapiens, A549, 24 h, read-out: % Increase over Background
[8] = mouse, iv, 1 mg/kg, male CD-1 mice
[9] = mouse, po, 5 mg/kg, male CD-1 mice
[10] = mouse, po, 5 mg/kg, male CD-1 mice, read-out: Tmax

Row | SMILES | IC50 (A549 cells; [5]) | IC50 (H1975 cells; [6]) | IC50 (HT-29 cells) | activation at 10 µM [1, 7] | Emax at 1 µM ([1]; Homo sapiens) | Emax at 10 µM ([1]; Homo sapiens) | AUC ([2]; male, CD-1, mouse, iv, 1 mg/kg) | Tmax ([2]; male, CD-1, mouse, iv, 1 mg/kg) | AUC ([2]; male, CD-1, mouse, po, 5 mg/kg) | Vd [2, 8] | clearance [2, 8] | Cmax [2, 8] | half-life [2, 8] | Cmax [2, 9] | Tmax [2, 10] | MLM % Remaining@ 30 Min [3] | HLM % Remaining@ 30 Min [4] | other results
1 | Oc1c(C(Nc2ccccn2)c2ccc(C(F)(F)F)cc2)ccc2cccnc12 (stereo not shown) [compound 10460] |  |  |  |  |  |  |  |  |  |  |  |  |  |  |  |  |  | IC50 (H1975 cells; NCI-H1975, H1975 cells, 72 hours post compound treatment, read-out: IC50 (best fit value from FIG. 10)): 0.304 µM; IC50 (H1975 cells; NCI-H1975, H1975 cells, 72 hours post compound treatment, read-out: Log IC50 (best fit value from FIG. 10) (converted)): 0.304 µM; IC50 (H1975 cells; NCI-H1975, MTT, 72 hours, read-out: IC50 Value (μM) H1975 Cells): 0.3 µM
2 | Cc1c(Cl)cnc(NC(c2cccc(Cl)c2Cl)c2ccc3cccnc3c2O)c1F (stereo not shown) [AD4-13192] | 0.15 µM | 0.19 µM | 2.2 µM | 561% | 11% | 55% | 1390 ng·h/mL | 4.98 min | 115 ng·h/mL | 0.56 L/kg | 12 mL/min/kg | 3550 ± 571 ng/mL | 88.2 min | 59 ± 21 ng/mL | 30 min | 63% | 100% | 
3 | Cc1cc(Cl)cnc1NC(c1ccc(Cl)cc1Cl)c1ccc2cccnc2c1O (stereo not shown) [AD4-13130] | 0.12 µM | 0.088 µM | 0.64 µM | 684% | 62% | 69% | 609 ng·h/mL | 4.98 min | 278 ng·h/mL | 3.24 L/kg | 27.3 mL/min/kg | 669 ± 45 ng/mL | 112 min | 131 ± 51 ng/mL | 60 min | 69% | 89% | IC50 (A549 cells; A549, read-out: IC50, cell proliferation in A549 or H1975 cells): ≤ 0.1 µM; apoptotic activity ([1]; Caspase, DNA Fragmentation, Annexin-V): increased apoptotic activity; activation at 1 µM [1, 7]: 630%
